These results are taken from patent publication US8614201B2 (Janssen Pharmaceutica NV, priority 2009, dated 2013).

Structures are written as SMILES.

Sequence of Human TRPA1 (O75762 whole entry): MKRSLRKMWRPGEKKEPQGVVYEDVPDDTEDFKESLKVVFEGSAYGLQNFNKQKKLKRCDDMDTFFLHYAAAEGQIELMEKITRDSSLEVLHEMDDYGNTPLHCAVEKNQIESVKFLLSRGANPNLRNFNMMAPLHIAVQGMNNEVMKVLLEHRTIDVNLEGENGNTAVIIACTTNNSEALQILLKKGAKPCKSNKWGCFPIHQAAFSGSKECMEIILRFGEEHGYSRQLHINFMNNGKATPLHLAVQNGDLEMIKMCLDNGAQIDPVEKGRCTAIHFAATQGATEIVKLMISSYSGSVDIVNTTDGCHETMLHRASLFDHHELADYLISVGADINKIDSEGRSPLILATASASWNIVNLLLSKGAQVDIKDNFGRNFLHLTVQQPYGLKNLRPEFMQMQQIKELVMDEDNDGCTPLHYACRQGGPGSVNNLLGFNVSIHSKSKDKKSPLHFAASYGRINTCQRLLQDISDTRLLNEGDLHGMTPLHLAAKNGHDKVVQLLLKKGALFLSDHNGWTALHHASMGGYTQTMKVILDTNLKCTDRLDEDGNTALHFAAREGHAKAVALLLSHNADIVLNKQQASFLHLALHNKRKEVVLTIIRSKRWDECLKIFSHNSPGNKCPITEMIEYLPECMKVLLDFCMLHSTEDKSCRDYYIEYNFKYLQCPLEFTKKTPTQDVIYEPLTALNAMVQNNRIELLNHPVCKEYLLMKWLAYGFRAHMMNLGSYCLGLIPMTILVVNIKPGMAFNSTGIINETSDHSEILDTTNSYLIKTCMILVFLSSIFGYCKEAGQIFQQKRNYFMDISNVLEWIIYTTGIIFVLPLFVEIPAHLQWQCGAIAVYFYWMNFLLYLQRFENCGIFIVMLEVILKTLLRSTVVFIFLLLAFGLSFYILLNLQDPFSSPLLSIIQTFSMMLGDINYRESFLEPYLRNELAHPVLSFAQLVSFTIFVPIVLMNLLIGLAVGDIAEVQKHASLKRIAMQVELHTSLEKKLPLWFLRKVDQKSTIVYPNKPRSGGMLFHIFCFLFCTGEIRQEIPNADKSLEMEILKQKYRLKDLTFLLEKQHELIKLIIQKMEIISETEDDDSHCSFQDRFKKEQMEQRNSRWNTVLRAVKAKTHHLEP

The assay concerns the target Human TRPA1 (Homo sapiens, UniProt O75762). In words: Assay 1: In vitro cellular testing of TRPA1 modulation (CHO-TREx, Fluo-3 calcium fluorescence, AITC agonist). Type of assay: cell-based. As to conditions: CHO-TREx cells expressing human TRPA1; Fluo-3 fluorescence (FLIPR/Tetra); agonist 15 μM allyl isothiocyanate (AITC); 30 minute antagonist incubation. Set-up: expressed in transfected cells; host or cells: CHO-TREx cells (Invitrogen), vector pcDNA4/TO. A digest of the protocol:
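Tetracycline-induced CHO-TREx cells stably expressing human TRPA1, loaded with 4 μM Fluo-3 AM, preincubated 30 min with compound (serial dilution typically from 10 μM, three-fold steps) in HEPES saline pH 7.4. Fluorescence change over 3 min after 15 μM AITC; IC50 from Hill fit versus no-antagonist and 10 μM ruthenium red controls.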
A word on the IC50: it is the concentration that inhibits the measured activity by half. On to `CN(C)c1cc(CNC(=O)[C@@H]2CC(F)(F)CN2S(=O)(=O)c2ccc(F)cc2)cc(-c2ccc(C(F)(F)F)cc2)n1` [Example 393, N-({2-(Dimethylamino)-6-[4-(trifluoromethyl)phenyl]pyridin-4-yl}methyl)-4,4-difluoro-1-[(4-fluorophenyl)sulfonyl]-L-prolinamide], for which the IC50 turned out to be 461 nM.
As for `O=C(NCc1cccc(-c2ccc(N3CCCCC3)cc2)c1)[C@@H]1CCCN1S(=O)(=O)c1ccc(F)cc1` [Example 103, 1-(4-Fluoro-benzenesulfonyl)-pyrrolidine-2S-carboxylic acid (4′-piperidin-1-yl-biphenyl-3-ylmethyl)-amide], the half-maximal inhibitory concentration (IC50) came out at 252 nM.
Consider `O=C(NCc1cc(-c2ccc(C(F)(F)F)cc2)ccn1)[C@@H]1CC(F)(F)CN1S(=O)(=O)c1ccc(F)cc1` [Example 139, 4,4-Difluoro-1-(4-fluoro-benzenesulfonyl)-pyrrolidine-2S-carboxylic acid [4-(4-trifluoromethyl-phenyl)-pyridin-2-ylmethyl]-amide], for which the concentration for half-maximal inhibition (IC50) stood at 73 nM.
With `CC(Nc1cc(CNC(=O)[C@@H]2CC(F)(F)CN2S(=O)(=O)c2ccc(Cl)s2)cc(-c2ccc(C(F)(F)F)cc2)n1)c1ccccc1` (stereo partly drawn) [Example 411, 1-[(5-Chlorothiophen-2-yl)sulfonyl]-4,4-difluoro-N-({2-[(1-phenylethyl)amino]-6-[4-(trifluoromethyl)phenyl]pyridin-4-yl}methyl)-L-prolinamide], the IC50 is 1430 nM.
With `CC(C)CN1CCN(c2nc(CNC(=O)[C@@H]3CCCN3S(=O)(=O)c3ccc(Cl)s3)cc(-c3ccc(C(F)(F)F)cc3)n2)CC1` [Example 24, 1-(5-Chloro-thiophene-2-sulfonyl)-pyrrolidine-2S-carboxylic acid [2-(4-isobutyl-piperazin-1-yl)-6-(4-trifluoromethyl-phenyl)-pyrimidin-4-ylmethyl]-amide], the half-inhibitory concentration (IC50) turned out to be 24 nM.
As to `O=C(NCc1cc(-c2ccc(C(F)(F)F)cc2)ccn1)[C@@H]1CCCN1S(=O)(=O)c1ccc(F)cc1` [Example 135, 1-(4-Fluoro-benzenesulfonyl)-pyrrolidine-2S-carboxylic acid [4-(4-trifluoromethyl-phenyl)-pyridin-2-ylmethyl]-amide], the concentration for half-maximal inhibition (IC50) was determined as 22 nM.
For `CNc1nc(CNC(=O)[C@@H]2CCCN2S(=O)(=O)c2ccc(F)cc2)cc(-c2ccc(C(F)(F)F)cc2)n1` [Example 14, 1-(4-Fluoro-benzenesulfonyl)-pyrrolidine-2S-carboxylic acid [2-methylamino-6-(4-trifluoromethyl-phenyl)-pyrimidin-4-ylmethyl]-amide], the IC50 came to 21 nM.
With `O=C(NCc1cc(NCc2ccccn2)nc(-c2ccc(C(F)(F)F)cc2)c1)[C@@H]1CCCN1S(=O)(=O)c1ccc(F)cc1` [Example 392, 1-[(4-Fluorophenyl)sulfonyl]-N-({2-[(pyridin-2-ylmethyl)amino]-6-[4-(trifluoromethyl)phenyl]pyridin-4-yl}methyl)-L-prolinamide], the IC50 was determined as 414 nM.
`CN(C)CCN1CCN(c2nc(CNC(=O)[C@@H]3CCCN3S(=O)(=O)c3ccc(F)cc3)cc(-c3ccc(C(F)(F)F)cc3)n2)CC1` [Example 17, 1-(4-Fluoro-benzenesulfonyl)-pyrrolidine-2S-carboxylic acid [2-[4-(2-dimethylamino-ethyl)-piperazin-1-yl]-6-(4-trifluoromethyl-phenyl)-pyrimidin-4-ylmethyl]-amide]: the IC50 was determined as 2080 nM.
Turning to `O=C(NCc1cccc(-c2cc(F)c(OC(F)F)c(F)c2)c1)[C@@H]1CCCN1S(=O)(=O)c1ccc(F)cc1` [Example 74, 1-(4-Fluorobenzenesulfonyl)-pyrrolidine-2S-carboxylic acid (4′-difluoromethoxy-3′,5′-difluorobiphenyl-3-ylmethyl)-amide], the IC50 was 17 nM.
Take `O=C(NCc1cc(-c2ccc(C(F)(F)F)cc2)ncn1)[C@@H]1CCCN1S(=O)(=O)c1cccs1` [Example 170, 1-(Thiophene-2-sulfonyl)-pyrrolidine-2S-carboxylic acid [6-(4-trifluoromethylphenyl)-pyrimidin-4-ylmethyl]-amide]: the IC50 amounted to 20 nM.
In the case of `O=C(NCc1cc(NCc2ccccc2)nc(-c2ccc(C(F)(F)F)cc2)c1)[C@@H]1CC(F)(F)CN1S(=O)(=O)c1ccc(Cl)s1` [Example 352, N-({2-(Benzylamino)-6-[4-(trifluoromethyl)phenyl]pyridin-4-yl}methyl)-1-[(5-chlorothiophen-2-yl)sulfonyl]-4,4-difluoro-L-prolinamide] it was 7090 nM; in that of `O=C(NCc1cc(-c2ccc(C(F)(F)F)cc2)ncn1)[C@@H]1CCCN1S(=O)(=O)c1cccc(C(F)(F)F)c1` [Example 157, 1-(3-Trifluoromethylbenzenesulfonyl)-pyrrolidine-2S-carboxylic acid [6-(4-trifluoromethylphenyl)-pyrimidin-4-ylmethyl]-amide], 4690 nM; in that of `CC(Nc1cc(CNC(=O)[C@@H]2CC(F)(F)CN2S(=O)(=O)c2ccc(Cl)s2)cc(-c2ccc(C(F)(F)F)cc2)n1)c1ccccn1` (stereo partly drawn) [Example 415, 1-[(5-Chlorothiophen-2-yl)sulfonyl]-4,4-difluoro-N-({2-[(1-pyridin-2-ylethyl)amino]-6-[4-(trifluoromethyl)phenyl]pyridin-4-yl}methyl)-L-prolinamide], 570 nM.
Regarding `CN(C)c1cc(CNC(=O)[C@@H]2C=CCN2S(=O)(=O)c2ccc(Cl)s2)cc(-c2ccc(C(F)(F)F)cc2)n1` [Example 334, (2S)-1-[(5-Chlorothiophen-2-yl)sulfonyl]-N-({2-(dimethylamino)-6-[4-(trifluoromethyl)phenyl]pyridin-4-yl}methyl)-2,5-dihydro-1H-pyrrole-2-carboxamide], the IC50 came out at 2630 nM.
In the case of `CC1CCCN1c1cc(CNC(=O)[C@@H]2CC(F)(F)CN2S(=O)(=O)c2ccc(F)cc2)cc(-c2ccc(C(F)(F)F)cc2)n1` (stereo partly drawn) [Example 396, 4,4-Difluoro-1-[(4-fluorophenyl)sulfonyl]-N-({2-(2-methylpyrrolidin-1-yl)-6-[4-(trifluoromethyl)phenyl]pyridin-4-yl}methyl)-L-prolinamide] it was 1790 nM; in that of `CNc1cc(CNC(=O)[C@@H]2CCCN2S(=O)(=O)c2ccc(Cl)s2)cc(-c2ccc(C(F)(F)F)cc2)n1` [Example 335, 1-[(5-Chlorothiophen-2-yl)sulfonyl]-N-({2-(methylamino)-6-[4-(trifluoromethyl)phenyl]pyridin-4-yl}methyl)-L-prolinamide], 179 nM; in that of `CC(C)C1CCCN1c1nc(CNC(=O)[C@@H]2CCCN2S(=O)(=O)c2ccc(Cl)s2)cc(-c2ccc(C(F)(F)F)cc2)n1` (stereo partly drawn) [Example 44, 1-(5-Chloro-thiophene-2-sulfonyl)-pyrrolidine-2S-carboxylic acid [2-(2-isopropyl-pyrrolidin-1-yl)-6-(4-trifluoromethyl-phenyl)-pyrimidin-4-ylmethyl]-amide], 12 nM.
The same measure for `O=C(NCc1cccc(-c2ccc(CN3CCOCC3)cc2)c1)[C@@H]1CCCN1S(=O)(=O)c1ccc(F)cc1` [Example 102, 1-(4-Fluorobenzenesulfonyl)-pyrrolidine-2S-carboxylic acid (4′-morpholin-4-ylmethylbiphenyl-3-ylmethyl)-amide]: 1700 nM; for `O=C(NCc1cc(-c2ccc(C(F)(F)F)cc2)ncn1)[C@@H]1CCCN1S(=O)(=O)c1ccc(C(F)(F)F)cc1` [Example 158, 1-(4-Trifluoromethylbenzenesulfonyl)-pyrrolidine-2S-carboxylic acid [6-(4-trifluoromethylphenyl)-pyrimidin-4-ylmethyl]-amide]: 587 nM.
The same measure for `O=C(NCc1cc(NCc2cccnc2)nc(-c2ccc(C(F)(F)F)cc2)c1)[C@@H]1C=CCN1S(=O)(=O)c1ccc(Cl)s1` [Example 345, (2S)-1-[(5-Chlorothiophen-2-yl)sulfonyl]-N-({2-[(pyridin-3-ylmethyl)amino]-6-[4-(trifluoromethyl)phenyl]pyridin-4-yl}methyl)-2,5-dihydro-1H-pyrrole-2-carboxamide]: 2500 nM; for `O=C(NCc1ccnc(-c2ccc(OC(F)(F)F)cc2)c1)[C@@H]1CCCN1S(=O)(=O)c1ccc(F)cc1` [Example 129, 1-(4-Fluoro-benzenesulfonyl)-pyrrolidine-2S-carboxylic acid [2-(4-trifluoromethoxy-phenyl)-pyridin-4-ylmethyl]-amide]: 19 nM; for `O=C(NCc1cc(-c2ccc(C(F)(F)F)cc2)nc(N2CCC(Cc3ccccc3)CC2)n1)[C@@H]1CCCN1S(=O)(=O)c1ccc(F)cc1` [Example 189, 1-(4-Fluoro-benzenesulfonyl)-pyrrolidine-2S-carboxylic acid [2-(4-benzyl-piperidin-1-yl)-6-(4-trifluoromethyl-phenyl)-pyrimidin-4-ylmethyl]-amide]: 2 nM.
For the compound `C[C@H](NC(=O)[C@@H]1CCCN1S(=O)(=O)c1ccc(F)cc1)c1cccc(-c2ccc(C(F)(F)F)cc2)c1` [Example 113, (1S,2S)-1-(4-Fluoro-benzenesulfonyl)-pyrrolidine-2-carboxylic acid [1-(4′-trifluoromethyl-biphenyl-3-yl)-ethyl]-amide], the concentration for half-maximal inhibition (IC50) was 62 nM.
Regarding `O=C(NCc1ccnc(-c2ccc(OC(F)(F)F)cc2)c1)[C@@H]1C=CCN1S(=O)(=O)c1ccc(Cl)s1` [Example 134, 1-(5-Chloro-thiophene-2-sulfonyl)-2,5-dihydro-1H-pyrrole-2S-carboxylic acid [2-(4-trifluoromethoxy-phenyl)-pyridin-4-ylmethyl]-amide], the IC50 is 21 nM.
In the case of `O=C(NCc1cccc(-c2ccc(N3CCOCC3)nc2)c1)[C@@H]1CCCN1S(=O)(=O)c1ccc(F)cc1` [Example 97, 1-(4-Fluorobenzenesulfonyl)-pyrrolidine-2S-carboxylic acid 3-(6-morpholin-4-yl-pyridin-3-yl)-benzylamide] it was 1710 nM.
